Substitutions are numbered along the chain they refer to.
Key:
[1] = tested on: Long Evans Hooded rats; assay: In vivo measurement of salivation; set-up: species or system rat; details: anesthetized normal rats, dose-dependent between about 0.1 mg/kg and 1 mg/kg
Procedure: Suitable doses of test compounds or drug substances were administered using standard techniques to Long Evans Hooded rats weighing 225 to 350 grams, or CD-1 mice weighing 30 to 50 grams, which had been anesthetized using 2-3.5%% of isoflurane in oxygen. The animals were placed slightly head-down on an inclined, heated ramp. Rectal temperature was monitored using a thermocouple and the temperature of the heating pad was adjusted manually to maintain normal body temperature. Saliva was collected from the mouth by absorption onto pre-weighed slips of filter paper. The filter paper was changed periodically and the amount of saliva was measured by weighing the filter paper slips.

[2] = target: T1, human muscarinic M3 receptors (Homo sapiens, UniProt P20309); assay: Stimulation of inositol phosphate production in A9L cells, human M3 (IPOne TR-FRET); assay type: cell-based
T1 construct: host or cells: A9L cells
T1 sequence (P20309 whole entry): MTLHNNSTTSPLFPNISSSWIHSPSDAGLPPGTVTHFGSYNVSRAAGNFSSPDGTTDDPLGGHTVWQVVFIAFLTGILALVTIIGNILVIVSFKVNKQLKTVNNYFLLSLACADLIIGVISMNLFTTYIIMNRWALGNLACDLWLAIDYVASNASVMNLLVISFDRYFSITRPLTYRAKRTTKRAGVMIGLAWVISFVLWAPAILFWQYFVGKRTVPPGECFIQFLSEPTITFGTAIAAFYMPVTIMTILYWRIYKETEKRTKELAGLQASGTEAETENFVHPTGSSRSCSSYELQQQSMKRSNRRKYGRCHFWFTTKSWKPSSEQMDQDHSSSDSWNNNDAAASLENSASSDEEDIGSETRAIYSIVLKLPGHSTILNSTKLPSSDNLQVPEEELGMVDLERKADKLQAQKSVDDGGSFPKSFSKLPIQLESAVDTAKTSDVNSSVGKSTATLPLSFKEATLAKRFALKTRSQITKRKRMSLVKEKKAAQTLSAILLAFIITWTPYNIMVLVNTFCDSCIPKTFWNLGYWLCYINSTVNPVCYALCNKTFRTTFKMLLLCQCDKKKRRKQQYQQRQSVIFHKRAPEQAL
Procedure: (§1) Muscarinic M1 and M3 agonist activity was evaluated by measuring the stimulation of inositol phosphate (IP) production in the presence of lithium chloride from A9L cells transfected with expression plasmids containing human muscarinic M1 and M3 receptors, respectively. The cell lines were a gift from Professor W Messer, and the methods were as described in Tejada F R et al. J. Med. Chem. 2006; 49: 7518-31 except that the assay was scaled down to run in 384 well plates, and IP was measured in the cell lysates using the non-isotopic IPOne TR-FRET assay (CIS-BIO, Inc).
(§2) Cells were grown to 90% confluence in 384 well hi-base plates (Greiner Bio-One), compounds were added at suitable concentrations in growth medium containing 10 mM LiCL, buffered with an extra 10 mM HEPES (pH7.4), and incubated for 60 minutes at 37° C. Cells were lysed and assayed for IP following the manufacturer's instructions.
(§3) The value for a full agonist is 100%, while partial agonists give values below 100%.

[3] = tested on: CD-I mice; assay: Apomorphine induced climbing model of psychosis; assay type: in vivo, mouse
Procedure: As described in Costall et. al. European Journal of Pharmacology 1978, 50, 39. individual CD-I mice, 1-2 months old, were placed in a cylindrical wire mesh cage (13.2 cm high×13.2 cm diameter) constructed of steel wire 1 mm thick spaced at 1.2 cm^2. Cylinders were placed in a standard OptiMICE mouse cage (29×32×9×29 cm wide and 14 cm high) with adequate wood chip bedding provided. Observations of climbing (defined as 3 or more paws off the ground) were carried out every 5 minutes at a duration of 1 minute for 30 minutes. Animals were injected subcutaneously under isoflurane anesthesia with test compounds, reference compounds, which included clozapine, haloperidol, olanzapine and xanomeline, or PBS as a control. This was followed 5 minutes later by 2 mg/kg apomorphine hydrochloride. All drugs were dissolved in PBS or a mixture of (by volume) 96% PBS and 4% hydroxypropyl-beta-cyclodextrin, and dosed at a rate of 5 ml per kilogram of body weight. Following injections, animals were replaced in the mesh cages and observed for climbing (defined as 3 or more paws off the ground) every 5 minutes for a duration of 1 minute for 60 minutes after dosing.

[4] = tested on: pooled male human liver microsomes; assay: Metabolism by human liver microsomes; assay type: in vitro ADME; details: 6 hours incubation
Procedure: Compounds were incubated with pooled male human liver microsomes (BD Biosciences, #452172) and an NADP-regenerating system in a phosphate buffer (pH 7.4) for a total of 6 hours. Aliquots were removed every 2 hours, and 1% formic acid was added to halt the reaction. Samples were centrifuged, filtered through 0.2 micron spinfilter and the amount of each compound in the supernatants was quantitated using LC/MS/MS.

[5] = target: T2, human muscarinic M1 receptors (Homo sapiens, UniProt P11229); assay: Stimulation of inositol phosphate production in A9L cells, human M1 (IPOne TR-FRET); assay type: cell-based
T2 construct: host or cells: A9L cells
T2 sequence (P11229 1-460): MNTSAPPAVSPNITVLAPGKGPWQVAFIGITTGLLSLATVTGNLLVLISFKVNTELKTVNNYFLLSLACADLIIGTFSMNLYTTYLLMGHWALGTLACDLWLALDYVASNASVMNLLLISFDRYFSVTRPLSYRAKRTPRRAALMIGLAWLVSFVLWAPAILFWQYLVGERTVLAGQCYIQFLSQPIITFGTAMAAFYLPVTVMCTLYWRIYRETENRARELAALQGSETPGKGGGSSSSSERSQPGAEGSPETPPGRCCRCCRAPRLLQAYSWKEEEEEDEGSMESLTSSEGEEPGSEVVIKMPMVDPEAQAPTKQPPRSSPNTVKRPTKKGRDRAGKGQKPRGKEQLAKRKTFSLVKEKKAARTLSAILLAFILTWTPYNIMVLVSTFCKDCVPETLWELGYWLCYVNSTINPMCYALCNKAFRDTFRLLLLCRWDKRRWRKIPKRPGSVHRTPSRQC
Procedure: as §1, §2, §3

[6] = tested on: A-beta; assay: A-beta in hippocampal microdialysate of Tg-2576 transgenic mice; assay type: in vivo, mouse; details: single dose
Description: These mice have high concentrations of A-beta in their brain tissue, thought to be the cause of neuron death in Alzheimer's disease, and accumulate amyloid plaques, recapitulating one of the hallmark pathological features of Alzheimer's disease.

[7] = target: T3, rat M1 receptors (Rattus norvegicus, UniProt P08482); assay: PI turnover (inositol phosphate production) in M1-CHO cells; assay type: cell-based; details: for Muscarinic agonist activity by PI turnover: cell lines expressing M1 and M3 subtypes
T3 construct: host or cells: Chinese Hamster Ovary cells (M1-CHO)
T3 sequence (P08482 1-460): T2 sequence (P11229 1-460) with A5V, T254S, P309S, R320K, A337G, I413V
Procedure: (§4) The medium was changed to 70 μL/well of inositol-free DMEM containing 2 mM glutamine, 10% FBS and 10 μCi/ml of [3H]-inositol (PE:cat #NET114A250UC), incubated overnight as above, then 100 μL of a solution of the test compound in HBSS containing 10 mM LiCl and 20 mM HEPES, pH 7.4 was added, incubation was continued for 60 min under the above conditions, and the test was stopped by removing the test compound and replacing with 100 μL of 50 mM formic acid in water at 4° C.

[8] = tested on: rats; assay: Muscarinic effects in vivo (salivary flow) in rats dosed orally; set-up: species or system rat
[9] = target: T4, rat M3 receptors (Rattus norvegicus, UniProt P08483); assay: PI turnover (inositol phosphate production) in M3-CHO cells; assay type: cell-based; details: mean Smax relative to mean Smax for carbachol (100)
T4 construct: host or cells: Chinese Hamster Ovary cells (M3-CHO)
T4 sequence (P08483 whole entry): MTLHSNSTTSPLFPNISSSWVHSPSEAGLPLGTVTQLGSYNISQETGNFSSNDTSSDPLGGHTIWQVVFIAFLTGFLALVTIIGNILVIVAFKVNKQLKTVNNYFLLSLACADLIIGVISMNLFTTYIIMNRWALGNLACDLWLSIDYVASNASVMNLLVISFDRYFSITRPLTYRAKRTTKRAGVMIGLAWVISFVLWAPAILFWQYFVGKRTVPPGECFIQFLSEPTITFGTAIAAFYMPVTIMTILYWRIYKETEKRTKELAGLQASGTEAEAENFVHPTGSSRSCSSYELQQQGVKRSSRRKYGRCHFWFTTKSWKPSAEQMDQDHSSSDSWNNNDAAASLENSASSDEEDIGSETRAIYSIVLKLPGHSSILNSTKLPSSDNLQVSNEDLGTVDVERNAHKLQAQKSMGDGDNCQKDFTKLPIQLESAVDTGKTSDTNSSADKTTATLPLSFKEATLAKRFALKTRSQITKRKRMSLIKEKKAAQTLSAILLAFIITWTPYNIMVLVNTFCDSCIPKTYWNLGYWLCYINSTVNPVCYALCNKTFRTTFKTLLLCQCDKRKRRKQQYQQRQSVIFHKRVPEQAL
Procedure: as §4

[10] = Blood and brain concentrations (rats) after oral gavage; assay type: in vivo, rat
Procedure: Long-Evans Hooded rats (Charles River: male, 250-350 g) were dosed with solutions of test compounds in PBS by oral gavage. At the desired time after dosing, the animals were anesthetized with isoflurane, and then euthanized by cervical dislocation. Blood was obtained by cardiac puncture, transferred to a 1.5 mL microcentrifuge tube containing 15U Heparin, and the plasma recovered after centrifugation. Brains were dissected, weighed, immediately chilled to 4° C., and homogenized using a PowerGen 125 homogenizer in five volumes of ice-cold 2% formic acid. Proteins were precipitated from plasma and brain homogenate with two and five volumes respectively of ice-cold 2% formic acid and clarified by centrifugation. The supernatant was ultra-filtered by centrifugation through a 3K MWCO spin column (Pall Life Sciences), following the manufacturer's instructions. The concentration of compound in the ultra-filtrate was subjected to reverse-phase liquid chromatography using a 150×2.1 mm Agilent C8 reverse-phase column on a Shimadzu Prominence LC, eluting the compounds with a gradient of 2% to 50% of acetonitrile+0.1% formic acid for compound MI-50,382, or an isocratic flow of 2% acetonitrile+0.1% formic acid for the rest of the compounds listed. The concentration of the compound in the column effluent was measured using an Applied Biosystems API-3200 triple quadrupole mass spectrometer equipped with an electrospray sample injection system. The counts of the characteristic parent and product ions of each test compound were converted to concentration units by comparison with a standard calibration curve.

[11] = Metabolites in serum and urine of dosed rats; assay type: in vivo; details: rat serum/plasma or urine
Procedure: Oxadiazoles disclosed herein as well as other oxadiazoles were investigated to determine the formation of metabolites. Animals were dosed, blood taken, serum prepared, serum proteins precipitated and ultrafiltrates prepared as described in Example 6. In separate experiments, urine was collected from rats for 16-24 hours after dosing, using standard metabolic cages. The urine container and collected urine were maintained at 4° C. Urine was lyophilized, taken back into water. The ultrafiltrate was prepared by adding formic acid to a final concentration of 1% to the urine samples, then filtered through a 0.2 um nylon membrane. The ultrafiltrate was subjected to LC-MS analysis. Instead of measuring the product ions in Q3, manual Q1 scans of the liquid chromatograph were undertaken, seeking parent ions of potential metabolites of the compounds. The criteria for identifying metabolites were as follows: (1) the ion should be present in the sera or urines of dosed rats, but not in sera or urines from non-dosed rats (2) the ion should be identifiable as a metabolic derivative of the dosed compound (e.g. loss of a functional chemical moiety, addition of a hydroxyl group or a glucuronic acid moiety, etc). Metabolites were determined not to be present if no compound meeting the above criteria could be detected in serum or urine.

Functional selectivity for M1 subtype by PI turnover ([7]; M1 versus M3 cell lines)	SMILES	PAMPA units	Salivation [1]	huM3/A9L ED50 relative to CCh [2]	Climbing Mean (secs) ([3]; Cmpd 3 + APO + N-Methyl Scopolamine 0.3 mg/kg)	Climbing Mean (secs) ([3]; Cmpd 3 + APO + scopolamine 0.3 mg/kg)	Potency in inhibiting climbing relative to reference antipsychotic ([3]; sc)	Metabolism in human liver microsomes [4]	huM1/A9L ED50 relative to CCh [5]	Reduction of concentration of A-beta 1-40 in hippocampal microdialysate [6]	Reduction of concentration of A-beta 1-42 in hippocampal microdialysate [6]	Muscarinic agonist activity by PI turnover [7]	Salivary flow ([8]; rats, dosed orally)	M3/CHO PI turnover Relative Mean Smax [9]	Plasma concentration relative to compound 1 ([10]; after oral dosing to rats)	Brain Cmax (10 mg/kg po) 1 hr MCD-386 = 1.00 ([10]; rat brain, 10 mg/kg po, 1 hr, relative to MCD-386)	Penetration into the brain ([10]; rats after oral dosing)	Presence of metabolites (10 mg/kg po) [11]	M1/CHO PI turnover Relative Mean Smax ([7]; mean Smax relative to mean Smax for carbachol (100))	Muscarinic agonist activity in vivo ([8]; in vivo)
	Cc1noc(C2CCCNC2)n1 (racemic) [compound 3, 3-Methyl-5-(piperidin-3-yl)-1,2,4-oxadiazole]	2.56	causes salivation	+/− (key: ++: potency > 10x CCh; +: potency 2-10x CCh; +/−: potency 0.5-2x CCh; −: potency < 0.5-0.1x CCh; −−: potency < 0.1x CCh; inactive: potency too low to determine)	unaffected by N-methylscopolamine	inhibited by scopolamine	equipotent to haloperidol	metabolized significantly less in human liver microsomes than in rat liver microsomes	+ (key: ++: potency > 10x CCh; +: potency 2-10x CCh; +/−: potency 0.5-2x CCh; −: potency < 0.5-0.1x CCh; −−: potency < 0.1x CCh; inactive: potency too low to determine)	approximately 40%	approximately 40%									
not selective for the M1 subtype	Cl.[2H]C([2H])([2H])c1noc(C2CN=CNC2)n1 (centres unmarked) [compound 4, 3-(d3-methyl)-5-(1,4,5,6-tetrahydropyrimidin-5-yl)-1,2,4-oxadiazole hydrochloride]											near full-agonist	copious salivary flow, which was relatively short-lived	92.6						
	[2H]C([2H])([2H])c1noc(C2CCCNC2)n1 (centres unmarked) [compound 7, 3-D3-Methyl-5-(piperidin-3-yl)-1,2,4-oxadiazole]							metabolized significantly less in human liver microsomes than in rat liver microsomes				relatively low		0	approximately 2.4 times	2.16	penetrated into the brain	No metabolites were identified and No	2.7	demonstrated muscarinic agonist activity in vivo
